Reference: patent publication US8637657B2, “Siderophore-mediated iron uptake in bacterial infection” (priority 2008, dated 2014)
“Also recorded” adds a separate entry of the source.

Experiments:
S. aureus SbnB mutant = assay type: cell-based; settings: compound added to growth media
Description: (§1) Using SbnA and SbnB mutants in growth culture assays, compounds were added to the growth media and tested for the ability to overcome the iron-restricted phenotype.

S. aureus SbnA mutant = test: growth culture assay, compounds added to overcome iron-restricted growth defect of SbnA mutant; assay type: cell-based; settings: compound added to growth media; data not shown
Description: as §1

wildtype S. aureus = test: disc growth assay with cell-free synthesized staphyloferrin A, wildtype; assay type: cell-based; settings: paper disk on agar plate, 37° C. for 24 hours
Description: (§2) Growth radius was measured around the disc after incubation of plates at 37° C. for 24 hours.

SirA mutant = test: disc growth assay with cell-free synthesized staphyloferrin A, SirA mutant; assay type: cell-based, S. aureus; settings: paper disk on agar plate, 37° C. for 24 hours
Description: as §2

Hts mutant = test: disc growth assay with cell-free synthesized staphyloferrin A, Hts mutant; assay type: cell-based, S. aureus; settings: paper disk on agar plate, 37° C. for 24 hours
Description: as §2

HtsSir mutant = test: disc growth assay with cell-free synthesized staphyloferrin A, HtsSir mutant; assay type: cell-based, S. aureus; settings: paper disk on agar plate, 37° C. for 24 hours
Description: as §2

SbnE = biological target: T1, SbnE (Staphylococcus aureus, UniProt Q2G1M9); test: hydroxylamine trapping (hydroxamate formation) assay, SbnE; assay type: biochemical, S. aureus; settings: 5 μM enzyme, 3 mM substrate
T1 construct: 6xHis; made in house; host or cells: E. coli BL21 (DE3)
T1 sequence (Q2G1M9 whole entry): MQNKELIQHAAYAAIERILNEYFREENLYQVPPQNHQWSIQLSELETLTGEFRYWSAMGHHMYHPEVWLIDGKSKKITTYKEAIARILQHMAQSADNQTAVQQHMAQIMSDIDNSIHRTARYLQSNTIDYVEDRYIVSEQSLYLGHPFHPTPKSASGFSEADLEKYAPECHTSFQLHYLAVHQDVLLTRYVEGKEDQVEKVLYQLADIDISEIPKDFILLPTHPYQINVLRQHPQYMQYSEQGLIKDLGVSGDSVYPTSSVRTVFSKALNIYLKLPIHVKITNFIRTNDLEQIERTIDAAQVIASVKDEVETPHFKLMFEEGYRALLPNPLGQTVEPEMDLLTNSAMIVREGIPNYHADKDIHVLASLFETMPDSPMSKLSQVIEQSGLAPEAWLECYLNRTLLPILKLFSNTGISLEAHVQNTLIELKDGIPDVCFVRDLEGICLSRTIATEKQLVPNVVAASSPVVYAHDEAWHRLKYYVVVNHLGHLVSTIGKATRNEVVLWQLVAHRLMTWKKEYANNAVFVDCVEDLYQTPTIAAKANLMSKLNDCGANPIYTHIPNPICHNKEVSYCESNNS
Description: All reactions were performed in 300 μL volumes and the following were common to each reaction: 2.25 mM ATP, 15 mM MgCl2, 150 mM hydroxylamine, and 50 mM HEPES pH 7.4. […] The supernatant which now contains the citryl-Dae intermediate was incubated with fresh 5 μM SbnF or SbnC, 2.25 mM ATP, and 150 mM hydroxylamine. To assess the potential recognition of citryl-Dap as a substrate for SbnF or SbnC, this intermediate was formed as described above except that Dae was replaced with 50 mM Dap instead. For each reaction, a duplicate control reaction was prepared in which the enzyme was previously inactivated by heating at 100° C. for 10 minutes. All reactions described above were incubated at room temperature in the dark for 1 hour before addition of 300 μL stopping solution which consisted of 10% (w/v) FeCl3 and 3.3% (w/v) trichloroacetic acid in 0.7 M HCl. Reactions were centrifuged at 20 000×g for 5 minutes to remove precipitate and the formation of ferric hydroxamate was detected spectrophotometrically at 540 nm. Relative absorbance values reported in this study were calculated by subtracting the absorbance of the control (boiled enzyme) reactions from the absorbance of experimental reactions.
Essentially, this assay is used to monitor the specific activity of a synthetase towards a particular carboxylic acid.

SbnF = biological target: T2, SbnF (Staphylococcus aureus, UniProt Q2G1M8); test: hydroxylamine trapping (hydroxamate formation) assay, SbnF; assay type: biochemical, S. aureus; settings: 5 μM enzyme
T2 construct: 6xHis; made in house; host or cells: E. coli BL21 (DE3)
T2 sequence (Q2G1M8 25-616 limits assumed): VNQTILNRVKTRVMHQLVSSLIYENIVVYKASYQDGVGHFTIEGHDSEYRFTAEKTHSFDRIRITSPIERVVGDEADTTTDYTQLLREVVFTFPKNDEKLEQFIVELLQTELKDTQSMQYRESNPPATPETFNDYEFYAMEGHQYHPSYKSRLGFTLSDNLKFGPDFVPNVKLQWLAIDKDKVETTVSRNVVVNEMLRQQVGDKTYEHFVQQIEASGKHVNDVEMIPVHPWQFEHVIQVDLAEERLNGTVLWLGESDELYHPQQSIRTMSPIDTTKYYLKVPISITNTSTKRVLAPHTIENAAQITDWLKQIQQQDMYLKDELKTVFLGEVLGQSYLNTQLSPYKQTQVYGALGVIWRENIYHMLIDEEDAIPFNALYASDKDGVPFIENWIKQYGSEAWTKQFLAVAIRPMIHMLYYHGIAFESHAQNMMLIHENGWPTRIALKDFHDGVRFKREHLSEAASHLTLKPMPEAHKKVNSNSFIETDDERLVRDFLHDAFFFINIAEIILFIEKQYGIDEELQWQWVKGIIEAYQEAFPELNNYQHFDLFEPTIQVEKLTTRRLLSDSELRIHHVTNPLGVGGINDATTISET
Description: All reactions were performed in 300 μL volumes and the following were common to each reaction: 2.25 mM ATP, 15 mM MgCl2, 150 mM hydroxylamine, and 50 mM HEPES pH 7.4. […] Similarly, to assess which enzyme utilized α-KG as a substrate, 5 μM of SbnC, SbnE, or SbnF were incubated with 3 mM α-KG and the common reaction components. […] This reaction was then heat treated at 70° C. to deactivate SbnE and the reaction was then centrifuged at 14 500 rpm for 10 minutes to pellet precipitated enzyme. The supernatant which now contains the citryl-Dae intermediate was incubated with fresh 5 μM SbnF or SbnC, 2.25 mM ATP, and 150 mM hydroxylamine. To assess the potential recognition of citryl-Dap as a substrate for SbnF or SbnC, this intermediate was formed as described above except that Dae was replaced with 50 mM Dap instead. For each reaction, a duplicate control reaction was prepared in which the enzyme was previously inactivated by heating at 100° C. for 10 minutes. All reactions described above were incubated at room temperature in the dark for 1 hour before addition of 300 μL stopping solution which consisted of 10% (w/v) FeCl3 and 3.3% (w/v) trichloroacetic acid in 0.7 M HCl. Reactions were centrifuged at 20 000×g for 5 minutes to remove precipitate and the formation of ferric hydroxamate was detected spectrophotometrically at 540 nm. Relative absorbance values reported in this study were calculated by subtracting the absorbance of the control (boiled enzyme) reactions from the absorbance of experimental reactions.

HtsA = test: heme binding to purified HtsA (absorption spectra); set-up: species or system S. aureus; settings: in comparison to IsdE
From the text: FIG. 10 illustrates the absorption spectra of purified IsdE, HtsA and SirA proteins in the absence of heme (A) and on exposure to heme (B);
In liquid growth assays, no attenuation of the htsABC deletion mutant, H1665, when grown on heme as a sole iron source (data not shown) was observed.

[1] = tested on: siderophore-deficient S. aureus (ΔsfaΔsbn); test: iron-starved growth of siderophore-deficient S. aureus with in vitro synthesized staphyloferrin B; assay type: cell-based; settings: enzymatic reaction material from complete reactions, increasing amounts
Description: Bacteria were cultured for 12 hours in TMS broth then 12 hours in TMS broth containing 100 μM 2,2′-dipyridyl (Sigma-Aldrich). Cells were washed twice in saline, and diluted 1:100 into 60% horse serum (Sigma-Aldrich)—40% TMS broth. For iron-replete media, 50 μM FeCl3 was included. Cultures were grown under constant, medium amplitude shaking in a Bioscreen C machine (Growth Curves, USA). Optical density was measured at 600 nm every 30 min. However, for clarity of growth curve figures, data are shown only at 2-hour intervals.
This staphyloferrin B-dependent growth promotion was mediated by the ABC transporter SirABC (FIG. 14B), which is encoded by the sirABC operon divergently transcribed from the sbn operon (FIG. 13A).

SbnC = biological target: T3, SbnC (Staphylococcus aureus, UniProt Q2G1N1); test: hydroxylamine trapping (hydroxamate formation) assay, SbnC; assay type: biochemical, S. aureus; settings: 5 μM enzyme, 3 mM substrate
T3 construct: 6xHis; made in house; host or cells: E. coli BL21 (DE3)
T3 sequence (Q2G1N1 1-584): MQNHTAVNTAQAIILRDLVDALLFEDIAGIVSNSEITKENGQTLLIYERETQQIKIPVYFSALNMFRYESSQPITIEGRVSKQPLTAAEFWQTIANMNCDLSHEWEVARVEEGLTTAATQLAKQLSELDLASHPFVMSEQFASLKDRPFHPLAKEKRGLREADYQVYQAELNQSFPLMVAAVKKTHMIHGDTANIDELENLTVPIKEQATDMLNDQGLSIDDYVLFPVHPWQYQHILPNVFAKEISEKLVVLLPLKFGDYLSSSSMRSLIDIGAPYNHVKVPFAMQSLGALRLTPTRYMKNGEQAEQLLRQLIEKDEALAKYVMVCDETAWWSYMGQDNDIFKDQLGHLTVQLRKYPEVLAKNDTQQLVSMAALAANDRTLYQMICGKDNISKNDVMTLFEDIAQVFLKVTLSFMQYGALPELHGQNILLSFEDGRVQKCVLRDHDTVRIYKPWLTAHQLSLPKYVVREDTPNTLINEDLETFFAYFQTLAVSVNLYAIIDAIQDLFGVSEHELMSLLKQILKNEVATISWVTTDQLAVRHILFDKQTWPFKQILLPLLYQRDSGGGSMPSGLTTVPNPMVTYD
Description: To assess the potential recognition of citryl-Dap as a substrate for SbnF or SbnC, this intermediate was formed as described above except that Dae was replaced with 50 mM Dap instead. For each reaction, a duplicate control reaction was prepared in which the enzyme was previously inactivated by heating at 100° C. for 10 minutes. All reactions described above were incubated at room temperature in the dark for 1 hour before addition of 300 μL stopping solution which consisted of 10% (w/v) FeCl3 and 3.3% (w/v) trichloroacetic acid in 0.7 M HCl. Reactions were centrifuged at 20 000×g for 5 minutes to remove precipitate and the formation of ferric hydroxamate was detected spectrophotometrically at 540 nm. Relative absorbance values reported in this study were calculated by subtracting the absorbance of the control (boiled enzyme) reactions from the absorbance of experimental reactions.

[2] = chrome azurol S (CAS) assay of iron chelating / siderophore activity; settings: SbnE reaction product
From the text: Strains of S. aureus containing complete sbn operon deletions (i.e. deleted for all of sbnA through sbnI genes) were constructed. In S. aureus Newman background, the sbn deletion strain was called H1331 whereas in RN6390 background, it was called H1324. […] Supplementation of serum growth media with iron obviated the growth defect of H1331 (FIG. 1, inset), and suppressed siderophore production in both Newman and H1331 (FIG. 2). […] To ensure that this was not due to a strain-specific phenomenon, all experiments described above were repeated using instead the RN6390 genetic background (i.e. RN6390 vs. H1324). Equivalent results were obtained (data not shown).
To measure levels of siderophore activity, chrome azurol S (CAS) shuttle solution was prepared as described. In the case of in vitro synthesized staphyloferrin B, 50 μL of the reaction mixture were removed and diluted in 450 μL of deionized water followed by 500 μL of CAS shuttle solution in a 1 ml spectrophotometer cuvette. The mixture was then incubated in the dark for 45 minutes. Siderophore quantification and absorbance readings were performed as described (Beasley et al., 2009).

S. aureus = test: promotion of iron-starved growth of S. aureus; assay type: cell-based; settings: SbnE reaction product; data not shown
Description: Siderophore plate bioassays were performed as described (Beasley et al., 2009). Growth promotion, as measured by the diameter of the growth halo around each disk, was determined after 36 h incubation at 37° C.

NCC(N)C(=O)O (stereo not drawn) [2,3-diamonpropionate, 2,3-diaminopropionate]
overcoming the iron-restricted growth defect of the SbnB mutant (S. aureus SbnB mutant): can be overcome | overcoming the iron-restricted growth defect of the SbnA mutant (S. aureus SbnA mutant): can be overcome

O=C(O)CC(O)(CC(=O)NCCC[C@@H](NC(=O)CC(O)(CC(=O)O)C(=O)O)C(=O)O)C(=O)O (stereo partly drawn) [Staphyloferrin A, staphyloferrin A]
growth promotion of wildtype S. aureus (wildtype S. aureus): promoted growth | growth promotion of SirA mutant (SirA mutant): promoted growth | growth promotion of Hts mutant (Hts mutant): did not promote growth | growth promotion of HtsSir mutant (HtsSir mutant): did not promote growth

O=C(O)CC(O)(CC(=O)O)C(=O)O [citrate]
activity of SbnE towards carboxylic acid substrate (SbnE): high level of specific activity | activity of SbnF towards carboxylic acid substrate (SbnF): small level of activity

NCCNC(=O)CC(O)(CC(=O)O)C(=O)O (stereo not drawn) [citryl-Dae]
activity of SbnF towards carboxylic acid substrate (SbnF): high levels of activity

C=CC1=C(C)c2cc3[n-]c(cc4[n-]c(cc5nc(cc1n2)C(C)=C5C=C)c(C)c4CCC(=O)O)c(CCC(=O)O)c3C.[Fe+2] [heme]
heme association with purified HtsA (HtsA): little to no heme would associate

O=C(O)[C@@H]1CCCN1 [proline]
overcoming the iron-restricted growth defect of the SbnB mutant (S. aureus SbnB mutant): unable to overcome

N[C@@H](CNC(=O)C[C@@](O)(CC(=O)NCCNC(=O)CCC(=O)C(=O)O)C(=O)O)C(=O)O [staphyloferrin B]
promotion of iron-starved growth of siderophore-deficient S. aureus (ΔsfaΔsbn) [1]: readily promote the iron-starved growth; also recorded: reaching levels comparable to growth in the presence of iron

O=C(O)CCC(=O)C(=O)O [α-KG, α-ketoglutarate]
activity of SbnC towards carboxylic acid substrate (SbnC): activates | activity of SbnE towards carboxylic acid substrate (SbnE): not | activity of SbnF towards carboxylic acid substrate (SbnF): not

NC(CNC(=O)CC(O)(CC(=O)O)C(=O)O)C(=O)O (stereo not drawn) [β-citryl-Dap intermediate]
reaction with CAS reagent [2]: reacted strongly | activity of SbnF towards carboxylic acid substrate (SbnF): did not react | promotion of iron-starved growth of S. aureus (S. aureus): unable to promote
